± gives the standard deviation of the averaged measurements.
Legend:
Assay in all cases: relative viability vs DMSO control (72 h) (fraction); higher = more viable cells
A204 = tested on: A204
Procedure, shortened: (§1)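 Plates held 72 h at 37 °C and 5% CO2 contained sarcoma cell lines seeded in 384-well format to reach 80–90% confluence, plus 2.5 µl of serially diluted compound added after 24 h. Source plate concentrations ran from 10 mM to 0.0002 mM, with 0.1% DMSO as vehicle and a 5 µM positive control. Percent growth from ATPLite readings, averaged over up to triplicate wells, gave relative viability. Values were rescaled with 1 as full and 0 as none.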

G401 = tested on: G401
Procedure, shortened: as §1

HS729 = tested on: HS729
Procedure, shortened: as §1

HT1080 = tested on: HT1080
Procedure, shortened: as §1

KHOS-NP = tested on: KHOS-NP
Procedure, shortened: as §1

MES-SA = tested on: MES-SA
Procedure, shortened: as §1

SK-LMS-1 = tested on: SK-LMS-1
Procedure, shortened: as §1

SW1353 = tested on: SW1353
Procedure, shortened: as §1

SW684 = tested on: SW684
Procedure, shortened: as §1

SW872 = tested on: SW872
Procedure, shortened: as §1

SYO-1 = tested on: SYO-1
Procedure, shortened: as §1

VA-ES-BJ = tested on: VA-ES-BJ
Procedure, shortened: as §1

Structure (SMILES): C[C@]12O[C@H](C[C@]1(O)CO)n1c3ccccc3c3c4c(c5c6ccccc6n2c5c31)CNC4=O [Lestaurtinib]
- relative viability (A204; 0.00017 µM): 1.07 ± 0.021
- relative viability (A204; 0.00051 µM): 1.07 ± 0.096
- relative viability (A204; 0.00152 µM): 1.07 ± 0.046
- relative viability (A204; 0.00457 µM): 1.02 ± 0.055
- relative viability (A204; 0.01372 µM): 0.967 ± 0.042
- relative viability (A204; 0.04115 µM): 0.788 ± 0.059
- relative viability (A204; 0.1235 µM): 0.56 ± 0.073
- relative viability (A204; 0.3704 µM): 0.378 ± 0.053
- relative viability (A204; 1.111 µM): 0.321 ± 0.023
- relative viability (A204; 3.333 µM): 0.277 ± 0.023
- relative viability (A204; 10 µM): 0.118 ± 0.017
- relative viability (G401; 0.00017 µM): 1.01 ± 0.059
- relative viability (G401; 0.00051 µM): 0.985 ± 0.025
- relative viability (G401; 0.00152 µM): 1.03 ± 0.019
- relative viability (G401; 0.00457 µM): 1.02 ± 0.059
- relative viability (G401; 0.01372 µM): 1.03 ± 0.041
- relative viability (G401; 0.04115 µM): 0.996 ± 0.035
- relative viability (G401; 0.1235 µM): 0.985 ± 0.03
- relative viability (G401; 0.3704 µM): 0.912 ± 0.027
- relative viability (G401; 1.111 µM): 0.718 ± 0.036
- relative viability (G401; 3.333 µM): 0.023 ± 0.0029
- relative viability (G401; 10 µM): 0.00583 ± 0.0018
- relative viability (HS729; 0.00017 µM): 1.05 ± 0.076
- relative viability (HS729; 0.00051 µM): 1 ± 0.097
- relative viability (HS729; 0.00152 µM): 1.01 ± 0.041
- relative viability (HS729; 0.00457 µM): 0.932 ± 0.055
- relative viability (HS729; 0.01372 µM): 0.863 ± 0.019
- relative viability (HS729; 0.04115 µM): 0.797 ± 0.032
- relative viability (HS729; 0.1235 µM): 0.757 ± 0.016
- relative viability (HS729; 0.3704 µM): 0.723 ± 0.059
- relative viability (HS729; 1.111 µM): 0.619 ± 0.029
- relative viability (HS729; 3.333 µM): 0.411 ± 0.038
- relative viability (HS729; 10 µM): 0.207 ± 0.014
- relative viability (HT1080; 0.00017 µM): 1.09 ± 0.05
- relative viability (HT1080; 0.00051 µM): 1.11 ± 0.013
- relative viability (HT1080; 0.00152 µM): 1.1 ± 0.025
- relative viability (HT1080; 0.00457 µM): 1.12 ± 0.019
- relative viability (HT1080; 0.01372 µM): 1.09 ± 0.033
- relative viability (HT1080; 0.04115 µM): 1.12 ± 0.036
- relative viability (HT1080; 0.1235 µM): 0.915 ± 0.022
- relative viability (HT1080; 0.3704 µM): 0.877 ± 0.033
- relative viability (HT1080; 1.111 µM): 0.689 ± 0.013
- relative viability (HT1080; 3.333 µM): 0.185 ± 0.0021
- relative viability (HT1080; 10 µM): 0.0222 ± 0.0018
- relative viability (KHOS-NP; 0.00017 µM): 1.11 ± 0.02
- relative viability (KHOS-NP; 0.00051 µM): 1.108 ± 0.01
- relative viability (KHOS-NP; 0.00152 µM): 1.11 ± 0.031
- relative viability (KHOS-NP; 0.00457 µM): 1.1 ± 0.029
- relative viability (KHOS-NP; 0.01372 µM): 1.1 ± 0.029
- relative viability (KHOS-NP; 0.04115 µM): 1.08 ± 0.018
- relative viability (KHOS-NP; 0.1235 µM): 0.9051 ± 0.0063
- relative viability (KHOS-NP; 0.3704 µM): 0.785 ± 0.026
- relative viability (KHOS-NP; 1.111 µM): 0.471 ± 0.013
- relative viability (KHOS-NP; 3.333 µM): 0.205 ± 0.0014
- relative viability (KHOS-NP; 10 µM): 0.091 ± 0.0093
- relative viability (MES-SA; 0.00017 µM): 0.966 ± 0.024
- relative viability (MES-SA; 0.00051 µM): 0.928 ± 0.018
- relative viability (MES-SA; 0.00152 µM): 0.947 ± 0.025
- relative viability (MES-SA; 0.00457 µM): 0.947 ± 0.013
- relative viability (MES-SA; 0.01372 µM): 0.874 ± 0.026
- relative viability (MES-SA; 0.04115 µM): 0.751 ± 0.024
- relative viability (MES-SA; 0.1235 µM): 0.538 ± 0.012
- relative viability (MES-SA; 0.3704 µM): 0.333 ± 0.0056
- relative viability (MES-SA; 1.111 µM): 0.2911 ± 0.0027
- relative viability (MES-SA; 3.333 µM): 0.164 ± 0.0043
- relative viability (MES-SA; 10 µM): 0.00447 ± 0.00076
- relative viability (SK-LMS-1; 0.00017 µM): 1.08 ± 0.052
- relative viability (SK-LMS-1; 0.00051 µM): 1.1 ± 0.028
- relative viability (SK-LMS-1; 0.00152 µM): 1.06 ± 0.024
- relative viability (SK-LMS-1; 0.00457 µM): 1.04 ± 0.061
- relative viability (SK-LMS-1; 0.01372 µM): 1.01 ± 0.044
- relative viability (SK-LMS-1; 0.04115 µM): 0.878 ± 0.012
- relative viability (SK-LMS-1; 0.1235 µM): 0.722 ± 0.067
- relative viability (SK-LMS-1; 0.3704 µM): 0.669 ± 0.047
- relative viability (SK-LMS-1; 1.111 µM): 0.541 ± 0.025
- relative viability (SK-LMS-1; 3.333 µM): 0.353 ± 0.02
- relative viability (SK-LMS-1; 10 µM): 0.146 ± 0.0046
- relative viability (SW1353; 0.00017 µM): 1.04 ± 0.059
- relative viability (SW1353; 0.00051 µM): 1.01 ± 0.025
- relative viability (SW1353; 0.00152 µM): 1 ± 0.019
- relative viability (SW1353; 0.00457 µM): 0.975 ± 0.033
- relative viability (SW1353; 0.01372 µM): 0.943 ± 0.025
- relative viability (SW1353; 0.04115 µM): 0.868 ± 0.032
- relative viability (SW1353; 0.1235 µM): 0.756 ± 0.0078
- relative viability (SW1353; 0.3704 µM): 0.698 ± 0.049
- relative viability (SW1353; 1.111 µM): 0.6462 ± 0.00028
- relative viability (SW1353; 3.333 µM): 0.375 ± 0.01
- relative viability (SW1353; 10 µM): 0.155 ± 0.019
- relative viability (SW684; 0.00017 µM): 1.15 ± 0.013
- relative viability (SW684; 0.00051 µM): 1.18 ± 0.032
- relative viability (SW684; 0.00152 µM): 1.16 ± 0.03
- relative viability (SW684; 0.00457 µM): 1.17 ± 0.034
- relative viability (SW684; 0.01372 µM): 1.18 ± 0.035
- relative viability (SW684; 0.04115 µM): 1.13 ± 0.03
- relative viability (SW684; 0.1235 µM): 1.11 ± 0.04
- relative viability (SW684; 0.3704 µM): 0.913 ± 0.02
- relative viability (SW684; 1.111 µM): 0.659 ± 0.0087
- relative viability (SW684; 3.333 µM): 0.346 ± 0.014
- relative viability (SW684; 10 µM): 0.0527 ± 0.0014
- relative viability (SW872; 0.00017 µM): 1.08 ± 0.026
- relative viability (SW872; 0.00051 µM): 1.07 ± 0.024
- relative viability (SW872; 0.00152 µM): 1.04 ± 0.038
- relative viability (SW872; 0.00457 µM): 1.03 ± 0.016
- relative viability (SW872; 0.01372 µM): 0.955 ± 0.05
- relative viability (SW872; 0.04115 µM): 0.803 ± 0.034
- relative viability (SW872; 0.1235 µM): 0.648 ± 0.043
- relative viability (SW872; 0.3704 µM): 0.507 ± 0.014
- relative viability (SW872; 1.111 µM): 0.358 ± 0.0086
- relative viability (SW872; 3.333 µM): 0.267 ± 0.015
- relative viability (SW872; 10 µM): 0.0094 ± 0.014
- relative viability (SYO-1; 0.00017 µM): 1.02 ± 0.039
- relative viability (SYO-1; 0.00051 µM): 0.989 ± 0.041
- relative viability (SYO-1; 0.00152 µM): 0.992 ± 0.048
- relative viability (SYO-1; 0.00457 µM): 0.991 ± 0.05
- relative viability (SYO-1; 0.01372 µM): 0.943 ± 0.061
- relative viability (SYO-1; 0.04115 µM): 0.873 ± 0.032
- relative viability (SYO-1; 0.1235 µM): 0.644 ± 0.045
- relative viability (SYO-1; 0.3704 µM): 0.295 ± 0.019
- relative viability (SYO-1; 1.111 µM): 0.0874 ± 0.023
- relative viability (SYO-1; 3.333 µM): 0.1 ± 0.0065
- relative viability (SYO-1; 10 µM): 0.102 ± 0.022
- relative viability (VA-ES-BJ; 0.00017 µM): 1.06 ± 0.041
- relative viability (VA-ES-BJ; 0.00051 µM): 1.06 ± 0.019
- relative viability (VA-ES-BJ; 0.00152 µM): 1.06 ± 0.026
- relative viability (VA-ES-BJ; 0.00457 µM): 1.03 ± 0.031
- relative viability (VA-ES-BJ; 0.01372 µM): 0.953 ± 0.049
- relative viability (VA-ES-BJ; 0.04115 µM): 0.838 ± 0.019
- relative viability (VA-ES-BJ; 0.1235 µM): 0.657 ± 0.029
- relative viability (VA-ES-BJ; 0.3704 µM): 0.544 ± 0.016
- relative viability (VA-ES-BJ; 1.111 µM): 0.42 ± 0.032
- relative viability (VA-ES-BJ; 3.333 µM): 0.176 ± 0.019
- relative viability (VA-ES-BJ; 10 µM): -0.00757 ± 0.0024
